The text below walks through data of PubChem BioAssay (NCI).

Values joined by “and” are separate entries in the source; they are usually repeats but may differ in a detail not shown here. Equal values may be shown once.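 Each compound was tested at five concentrations against cells in 96-well plates for 48 hours. GI50: concentration for 50% inhibition of growth. The concentration for full growth arrest is given as TGI.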

Among the test systems are HOP-18 NSCLC; M19-MEL melanoma; DLD-1 colon; P388/ADR leukemia; XF 498 CNS; MDA-N; SN12K1 renal; KM20L2 colon; DMS 273 small cell lung; SNB-78 CNS.
Common to all, as to experiment: NCI tumour cell line growth inhibition, 48 h

In the case of `CCC/C=C/C=C/C(=O)OC1/C(=C/C(=O)OC)CC2CC(C(C)O)OC(=O)CC(O)CC3CC(OC(C)=O)C(C)(C)C(O)(CC4C/C(=C/C(=O)OC)CC(/C=C/C(C)(C)C1(O)O2)O4)O3` (stereo unspecified), the GI50 in the assay with HOP-18 NSCLC was 1.76 µM and 6.05 µM; with M19-MEL melanoma, > 10.9 µM and 7.88 µM; with XF 498 CNS it was 4.43 µM; in the assay with MDA-N, above 12.5 µM; in the assay on SN12K1 renal it was above 11 µM; in the assay with KM20L2 colon it was > 10.9 µM and 6.51 µM. Moreover, the GI50 with SNB-78 CNS was 5.56 µM and 10.3 µM. Further, the TGI in the assay with HOP-18 NSCLC was 2.52 µM and 10.8 µM; with M19-MEL melanoma it was > 10.9 µM and 11 µM; in the assay with DLD-1 colon it was > 10.9 µM and 11 µM; with P388/ADR leukemia, 10.9 µM and 11 µM; with XF 498 CNS, 11 µM; in the assay on MDA-N, 11 µM and > 12.5 µM. In addition, the TGI with SN12K1 renal was above 11 µM; in the assay with KM20L2 colon it was > 10.9 µM and 11 µM; with DMS 273 small cell lung, > 10.9 µM and 11 µM; in the assay with SNB-78 CNS it was 7.22 µM and 11 µM.

For `NC(CSC(c1ccccc1)(c1ccccc1)c1ccccc1)C(=O)O` (stereo unspecified), the TGI was determined as 116 µM in the assay on HOP-18 NSCLC; 117 µM in the assay on M19-MEL melanoma; 125 µM in the assay with DLD-1 colon; 125 µM in the assay on P388/ADR leukemia; 7.77 µM in the assay on XF 498 CNS; 12.5 µM in the assay on MDA-N. Besides, the TGI in the assay on SN12K1 renal was found to be 2.21 µM; in the assay with KM20L2 colon it was 5.47 µM; in the assay on DMS 273 small cell lung, 1.55 µM; with SNB-78 CNS, 95.9 µM. Moreover, the GI50 in the assay on M19-MEL melanoma is 5.07 µM; in the assay on DLD-1 colon, 0.831 µM; in the assay with XF 498 CNS it was 0.711 µM and 0.959 µM; in the assay on SNB-78 CNS, 10.8 µM.
